Where two headings read alike, the source gives them in different places.
Tests used:
[1] = system: MSN-enriched primary neurons and PBMCs; test: LDH release assay; type: cell-based, mouse
Experimental: MTT and LDH release assays were conducted in MSN-enriched primary neurons and in PBMCs[64]. Cellular cytotoxicity was conducted in HepG2 cells using high content screening (HCS) protocols. Briefly, HepG2 cells were plated on 384-well tissue culture treated black walled clear bottomed polystyrene plates and treated with varying concentrations of Mal-gluc or DHCA. The cells were loaded with the relevant dye/antibody for each cell-health marker following incubation, including cell count, markers for nuclear size, DNA structure, cell membrane permeability, mitochondrial mass, mitochondrial membrane potential and cytochrome C release. The plates were then scanned using an automated fluorescent cellular imager ArrayScanr (Thermo Scientific Cellomics).

CYP1A2 = biological target: T1, CYP1A2 (Homo sapiens, UniProt P05177); test: CYP inhibition in human liver microsomes; type: in vitro ADME; conditions: read-out: CPY450 inhibition (IC50), CYP1A2
T1 construct: from tissue; host or cells: human liver microsomes
Experimental: (§1) CYP inhibition was tested in isolated microsomes for CYP2D6, CYP3A4, CYP1A2, CYP2C9, CYP2C19, CYP2C8, and CYP2B6[66]. Briefly, increasing concentrations of Mal-gluc or DHCA were incubated with human liver microsomes (HLM) in the presence of 2 mM NADPH in 100 mM potassium phosphate (pH 7.4) containing 5 mM magnesium chloride and a specific probe substrate for different CYPs: tacrine (CYP1A2), amodiaquine (CYP2C8), tolbutamide (CYP2C9), S-mephenytoin (CYP2C19), dextromethorphan (CYP2D6), midazolam/testosterone (CYP3A4/5), or bupropion (CYP2B6). CYP-specific inhibitors were included alongside the test compound as a positive control, including α-naphthoflavone (CYP1A2), quercetin (CYP2C8), ketoconazole (CYP3A4/5), quinidine (CYP2D6), sulfaphenazole (CYP2C9), and ticlopidine (CYP2C19, CYP2B6). After incubation at 37 °C, the reactions were terminated by addition of a methanol-containing internal standard (propranolol) for analytical quantification. The quenched samples were then incubated at 4 °C for 10 min and centrifuged at 4 °C for 10 min. The supernatant was removed and the probe substrate metabolite was analyzed by LC-MS/MS (Agilent Technologies Triple Quad LC-MS/MS).

CYP2B6 = biological target: T2, CYP2B6 (Homo sapiens, UniProt P20813); test: CYP inhibition in human liver microsomes; type: in vitro ADME; conditions: read-out: CPY450 inhibition (IC50), CYP2B6
T2 construct: from tissue; host or cells: human liver microsomes
T2 sequence (P20813 whole entry): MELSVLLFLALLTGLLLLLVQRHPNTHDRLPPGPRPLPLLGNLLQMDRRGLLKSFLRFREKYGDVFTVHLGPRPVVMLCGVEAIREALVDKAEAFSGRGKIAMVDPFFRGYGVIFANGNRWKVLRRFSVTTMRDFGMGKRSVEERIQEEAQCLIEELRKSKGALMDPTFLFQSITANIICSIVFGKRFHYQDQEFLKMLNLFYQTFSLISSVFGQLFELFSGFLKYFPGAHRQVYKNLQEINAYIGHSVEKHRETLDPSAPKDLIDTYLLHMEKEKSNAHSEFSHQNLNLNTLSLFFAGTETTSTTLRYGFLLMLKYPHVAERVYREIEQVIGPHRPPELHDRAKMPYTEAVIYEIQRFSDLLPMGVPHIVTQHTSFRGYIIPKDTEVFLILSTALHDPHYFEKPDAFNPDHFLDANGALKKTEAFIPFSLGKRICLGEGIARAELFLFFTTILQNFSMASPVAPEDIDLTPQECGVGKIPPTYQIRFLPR
Experimental: as §1

CYP2C19 = biological target: T3, CYP2C19 (Homo sapiens, UniProt P33261); test: CYP inhibition in human liver microsomes; type: in vitro ADME; conditions: read-out: CPY450 inhibition (IC50), CYP2C19
T3 construct: from tissue; host or cells: human liver microsomes
T3 sequence (P33261 whole entry): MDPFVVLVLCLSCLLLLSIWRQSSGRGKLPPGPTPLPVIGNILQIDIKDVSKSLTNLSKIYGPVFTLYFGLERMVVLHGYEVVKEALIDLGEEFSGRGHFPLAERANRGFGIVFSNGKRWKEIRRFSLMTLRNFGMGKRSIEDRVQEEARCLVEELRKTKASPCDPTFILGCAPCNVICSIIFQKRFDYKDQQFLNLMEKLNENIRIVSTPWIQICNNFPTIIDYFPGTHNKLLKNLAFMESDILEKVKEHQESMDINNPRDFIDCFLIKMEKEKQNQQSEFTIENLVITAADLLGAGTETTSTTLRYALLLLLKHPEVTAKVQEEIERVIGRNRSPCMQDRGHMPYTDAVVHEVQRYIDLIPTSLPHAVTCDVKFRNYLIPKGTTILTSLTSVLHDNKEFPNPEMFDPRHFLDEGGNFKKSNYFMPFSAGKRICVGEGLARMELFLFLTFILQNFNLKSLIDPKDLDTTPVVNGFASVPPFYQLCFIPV
Experimental: as §1

CYP2C8 = biological target: T4, CYP2C8 (Homo sapiens, UniProt P10632); test: CYP inhibition in human liver microsomes; type: in vitro ADME; conditions: read-out: CPY450 inhibition (IC50), CYP2C8
T4 construct: from tissue; host or cells: human liver microsomes
T4 sequence (P10632 whole entry): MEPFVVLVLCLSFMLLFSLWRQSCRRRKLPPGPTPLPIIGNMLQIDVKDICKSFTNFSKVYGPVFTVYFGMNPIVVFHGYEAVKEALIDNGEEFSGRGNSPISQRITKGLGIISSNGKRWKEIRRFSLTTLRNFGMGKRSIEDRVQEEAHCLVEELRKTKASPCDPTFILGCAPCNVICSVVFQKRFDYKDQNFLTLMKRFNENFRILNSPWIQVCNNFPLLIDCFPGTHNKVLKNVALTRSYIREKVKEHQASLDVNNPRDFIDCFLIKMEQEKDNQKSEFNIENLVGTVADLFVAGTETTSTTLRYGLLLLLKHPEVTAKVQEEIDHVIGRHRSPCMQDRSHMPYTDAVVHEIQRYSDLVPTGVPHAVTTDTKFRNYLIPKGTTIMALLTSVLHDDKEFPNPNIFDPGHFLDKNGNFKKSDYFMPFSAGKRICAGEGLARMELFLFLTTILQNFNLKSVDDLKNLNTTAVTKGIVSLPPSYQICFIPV
Experimental: as §1

CYP2C9 = biological target: T5, CYP2C9 (Homo sapiens, UniProt P11712); test: CYP inhibition in human liver microsomes; type: in vitro ADME; conditions: read-out: CPY450 inhibition (IC50), CYP2C9
T5 construct: from tissue; host or cells: human liver microsomes
T5 sequence (P11712 whole entry): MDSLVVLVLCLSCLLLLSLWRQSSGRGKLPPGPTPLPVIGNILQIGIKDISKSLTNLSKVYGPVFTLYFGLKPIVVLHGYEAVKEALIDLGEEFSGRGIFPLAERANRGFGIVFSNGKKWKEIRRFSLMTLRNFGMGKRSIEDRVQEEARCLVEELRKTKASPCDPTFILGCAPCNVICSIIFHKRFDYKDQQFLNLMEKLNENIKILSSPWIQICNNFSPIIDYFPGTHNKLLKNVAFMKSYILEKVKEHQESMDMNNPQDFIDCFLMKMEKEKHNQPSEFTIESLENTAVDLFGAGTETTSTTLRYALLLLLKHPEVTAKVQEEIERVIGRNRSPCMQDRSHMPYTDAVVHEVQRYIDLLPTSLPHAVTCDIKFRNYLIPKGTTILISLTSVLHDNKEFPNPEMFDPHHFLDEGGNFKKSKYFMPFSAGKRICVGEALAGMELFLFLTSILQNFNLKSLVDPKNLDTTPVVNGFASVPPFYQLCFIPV
Experimental: as §1

CYP2D6 = biological target: T6, CYP2D6 (Homo sapiens, UniProt P10635); test: CYP inhibition in human liver microsomes; type: in vitro ADME; conditions: read-out: CPY450 inhibition (IC50), CYP2D6
T6 construct: from tissue; host or cells: human liver microsomes
T6 sequence (P10635 whole entry): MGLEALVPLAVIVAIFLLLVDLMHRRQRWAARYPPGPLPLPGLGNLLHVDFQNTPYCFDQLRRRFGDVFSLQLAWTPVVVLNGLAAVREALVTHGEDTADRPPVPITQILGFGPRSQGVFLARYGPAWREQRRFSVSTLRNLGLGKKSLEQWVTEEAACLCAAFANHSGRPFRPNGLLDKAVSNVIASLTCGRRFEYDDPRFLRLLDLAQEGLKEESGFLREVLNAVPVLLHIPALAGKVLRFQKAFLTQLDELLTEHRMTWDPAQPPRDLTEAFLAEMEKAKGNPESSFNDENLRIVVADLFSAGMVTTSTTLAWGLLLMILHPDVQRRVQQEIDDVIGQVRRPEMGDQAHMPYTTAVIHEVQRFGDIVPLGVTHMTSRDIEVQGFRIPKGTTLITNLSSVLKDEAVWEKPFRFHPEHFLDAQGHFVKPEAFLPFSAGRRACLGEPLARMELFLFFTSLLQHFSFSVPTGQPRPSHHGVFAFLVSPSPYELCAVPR
Experimental: as §1

CYP3A4 = CYP3A4 (Homo sapiens, UniProt P08684); test: CYP inhibition in human liver microsomes; type: in vitro ADME; conditions: read-out: CPY450 inhibition (IC50), CYP3A4
Sequence of CYP3A4 (P08684 2-503): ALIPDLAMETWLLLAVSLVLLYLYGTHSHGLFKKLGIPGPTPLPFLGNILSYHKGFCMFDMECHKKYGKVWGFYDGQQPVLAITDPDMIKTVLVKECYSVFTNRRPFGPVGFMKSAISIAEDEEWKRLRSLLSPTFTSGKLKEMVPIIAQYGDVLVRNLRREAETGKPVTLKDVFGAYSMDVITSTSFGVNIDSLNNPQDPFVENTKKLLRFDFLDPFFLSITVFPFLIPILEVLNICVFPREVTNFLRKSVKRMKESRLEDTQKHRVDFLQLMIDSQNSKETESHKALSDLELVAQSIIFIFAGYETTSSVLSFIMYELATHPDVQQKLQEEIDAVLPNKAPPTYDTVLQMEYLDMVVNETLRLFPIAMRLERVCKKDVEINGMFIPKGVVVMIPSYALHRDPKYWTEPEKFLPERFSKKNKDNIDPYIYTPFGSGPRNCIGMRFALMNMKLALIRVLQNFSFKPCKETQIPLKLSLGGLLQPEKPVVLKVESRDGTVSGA
Experimental: as §1

[2] = biological target: T7, 5-HT1D (serotonin receptor) (Homo sapiens, UniProt P28221); test: Radioligand binding assay; conditions: for Binding activity, 5-HT1D (percentage): 10 µM, HEK membrane fractions, quadruplicate
T7 construct: expressed in transfected cells; crude membrane fractions
T7 sequence (P28221 whole entry, species assumed): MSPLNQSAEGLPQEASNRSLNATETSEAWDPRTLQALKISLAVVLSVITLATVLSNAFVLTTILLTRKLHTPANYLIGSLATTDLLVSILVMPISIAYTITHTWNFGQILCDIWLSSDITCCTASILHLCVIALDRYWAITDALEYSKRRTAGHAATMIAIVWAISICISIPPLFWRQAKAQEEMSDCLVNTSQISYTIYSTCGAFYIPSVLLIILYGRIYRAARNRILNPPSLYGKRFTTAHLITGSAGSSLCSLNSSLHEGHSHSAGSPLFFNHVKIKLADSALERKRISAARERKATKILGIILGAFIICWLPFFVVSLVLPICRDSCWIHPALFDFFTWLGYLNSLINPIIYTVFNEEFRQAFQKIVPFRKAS
Experimental: (§2) Radioligand binding assays were performed as previously described. Briefly, crude membrane fractions prepared from a stable HEK cell line expressing recombinant receptors were mixed with a radiolabeled specific ligand and 10 µM of competitor compound (DHCA, Mal-gluc, or non-specific ligand). The percentage of radioligand binding was subsequently measured.

[3] = biological target: T8, Alpha1A (alpha adrenergic receptor) (Homo sapiens, UniProt P35348); test: Radioligand binding assay; conditions: 10 µM; HEK membrane fractions; quadruplicate
T8 construct: purchased NIMH Psychoactive Drug Screening Program (PDSP)
Experimental: as §2

[4] = biological target: T9, Alpha1B (alpha adrenergic receptor) (Homo sapiens, UniProt P35368); test: Radioligand binding assay; conditions: 10 µM; HEK membrane fractions; quadruplicate
T9 construct: purchased NIMH Psychoactive Drug Screening Program (PDSP)
T9 sequence (P35368 whole entry): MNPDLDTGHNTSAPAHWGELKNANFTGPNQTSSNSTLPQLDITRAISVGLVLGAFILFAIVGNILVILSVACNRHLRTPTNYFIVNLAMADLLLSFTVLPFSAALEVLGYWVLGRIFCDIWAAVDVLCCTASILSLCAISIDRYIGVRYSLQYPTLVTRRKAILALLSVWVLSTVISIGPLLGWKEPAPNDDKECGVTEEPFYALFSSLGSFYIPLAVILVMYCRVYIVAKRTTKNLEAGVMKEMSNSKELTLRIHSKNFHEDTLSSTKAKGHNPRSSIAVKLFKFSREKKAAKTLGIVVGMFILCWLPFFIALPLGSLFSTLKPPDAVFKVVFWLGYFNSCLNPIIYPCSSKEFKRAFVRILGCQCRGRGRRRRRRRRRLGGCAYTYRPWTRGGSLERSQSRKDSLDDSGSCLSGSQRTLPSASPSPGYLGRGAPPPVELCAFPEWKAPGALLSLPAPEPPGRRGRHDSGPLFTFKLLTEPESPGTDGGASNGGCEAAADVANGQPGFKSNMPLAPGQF
Experimental: as §2

[5] = biological target: T10, Alpha2B (alpha adrenergic receptor) (Homo sapiens, UniProt P18089); test: Radioligand binding assay; conditions: 10 µM; HEK membrane fractions; quadruplicate
T10 construct: purchased NIMH Psychoactive Drug Screening Program (PDSP)
Experimental: as §2

M1 (muscarinic receptor) = biological target: T11, M1 (muscarinic receptor) (Homo sapiens, UniProt P11229); test: Radioligand binding assay; conditions: 10 µM; HEK membrane fractions; quadruplicate
T11 construct: purchased NIMH Psychoactive Drug Screening Program (PDSP)
T11 sequence (P11229 whole entry): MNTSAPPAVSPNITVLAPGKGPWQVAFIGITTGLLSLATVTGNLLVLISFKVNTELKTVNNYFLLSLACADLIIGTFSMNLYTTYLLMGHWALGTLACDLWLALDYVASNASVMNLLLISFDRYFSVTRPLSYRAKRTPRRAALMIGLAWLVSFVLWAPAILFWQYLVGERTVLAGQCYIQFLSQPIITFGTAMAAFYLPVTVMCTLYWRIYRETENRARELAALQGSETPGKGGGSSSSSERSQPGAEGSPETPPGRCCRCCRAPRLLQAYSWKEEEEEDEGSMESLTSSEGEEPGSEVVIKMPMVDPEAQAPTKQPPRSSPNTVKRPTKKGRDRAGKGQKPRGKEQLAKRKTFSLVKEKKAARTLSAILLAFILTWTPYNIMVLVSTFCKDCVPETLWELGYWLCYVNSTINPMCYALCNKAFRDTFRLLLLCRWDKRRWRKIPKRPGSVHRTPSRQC
Experimental: as §2

[6] = biological target: T12, NET (norepinephrine transporter) (Homo sapiens, UniProt P23975); test: Radioligand binding assay; conditions: 10 µM; HEK membrane fractions; quadruplicate
T12 construct: purchased NIMH Psychoactive Drug Screening Program (PDSP)
T12 sequence (P23975 whole entry): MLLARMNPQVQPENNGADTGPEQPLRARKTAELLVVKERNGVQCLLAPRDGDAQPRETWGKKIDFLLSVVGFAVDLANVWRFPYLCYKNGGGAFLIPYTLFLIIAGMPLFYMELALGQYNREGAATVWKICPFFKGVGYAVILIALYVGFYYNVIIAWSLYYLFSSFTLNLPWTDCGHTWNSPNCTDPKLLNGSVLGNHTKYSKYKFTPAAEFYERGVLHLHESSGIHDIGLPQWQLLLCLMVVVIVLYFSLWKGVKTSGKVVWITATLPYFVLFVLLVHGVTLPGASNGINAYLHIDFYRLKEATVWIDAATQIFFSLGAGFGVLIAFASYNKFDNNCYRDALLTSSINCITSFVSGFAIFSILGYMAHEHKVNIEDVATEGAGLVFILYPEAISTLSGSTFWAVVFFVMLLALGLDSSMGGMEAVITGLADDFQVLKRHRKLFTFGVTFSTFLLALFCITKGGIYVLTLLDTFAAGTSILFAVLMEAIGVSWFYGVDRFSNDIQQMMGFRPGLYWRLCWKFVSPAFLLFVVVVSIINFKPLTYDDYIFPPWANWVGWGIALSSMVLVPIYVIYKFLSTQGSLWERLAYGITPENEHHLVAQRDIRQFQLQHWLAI
Experimental: as §2

[7] = biological target: T13, SERT (serotonin transporter) (Homo sapiens, UniProt P31645); test: Radioligand binding assay; conditions: 10 µM; HEK membrane fractions; quadruplicate
T13 construct: purchased NIMH Psychoactive Drug Screening Program (PDSP)
Experimental: as §2

[8] = In vivo safety: plasma ALP, AST, ALT, BUN; parameters: species or system mouse; conditions: 2 weeks, all doses tested
Experimental: We then initiated dose response and safety studies in mice to determine testing dosages and safety of DHCA and Mal-gluc. C57BL/6 mice were treated with either DHCA (doses ranging from 50 µg to 50 mg/kg-BW/day) or Mal-gluc (doses ranging from 50 ng to 5 mg/kg-BW/day) for 2 weeks to simulate long-term administration. Mice treated with DHCA were challenged with intraperitoneal (i.p.) injection of 0.4 mg/kg-BW LPS and plasma levels of IL-6 were measured 6 h post injection. […] Following common discovery-stage practices, we measured the plasma levels of alkaline phosphatase (ALP), aspartate aminotransferase (AST), and alanine aminotransferase (ALT) for liver function and blood urea nitrogen (BUN) for renal function.
Male C57BL/6 J mice (8-week-old) were placed on a polyphenol-free AIN-93M diet and treated with various doses of DHCA (vehicle, 50 µg, 500 µg, 5 mg, and 50 mg/kg-BW/day), delivered through their drinking water for two weeks. Animals were then sacrificed and plasma was collected for routine biochemistry panel analysis including ALP, ALT, and AST for liver function and blood urea nitrogen (BUN) content for kidney function. A separate group of mice was similarly treated and challenged with an i.p. injection of 0.4 mg/kg body weight LPS and plasma was collected 6 h post injection for IL-6 analysis. […]

| SMILES | LDH assay, % of vehicle control [1] [%] | IC50 (CYP1A2) [µM] | IC50 (CYP2B6) [µM] | IC50 (CYP2C19) [µM] | IC50 (CYP2C8) [µM] | IC50 (CYP2C9) [µM] | IC50 (CYP2D6) [µM] | IC50 (CYP3A4) [µM] | Binding activity, 5-HT1D (percentage) [2] [%] | Ki ([2]; secondary radioligand binding assay, read-out: calculated inhibitory constant (Ki), 5-HT1D) [µM] | Binding activity, Alpha1A (percentage) [3] [%] | Binding activity, Alpha1B (percentage) [4] [%] | Binding activity, Alpha2B (percentage) [5] [%] | Binding activity, M1 (percentage) (M1 (muscarinic receptor)) [%] | Binding activity, NET (percentage) [6] [%] | Binding activity, SERT (percentage) [7] [%] | plasma ALP, AST, ALT (liver function) and BUN (renal function) [8] | IC50 (CYP3A4; human, pH 7.4, probe midazolam/testosterone) [µM] |
| --- | --- | --- | --- | --- | --- | --- | --- | --- | --- | --- | --- | --- | --- | --- | --- | --- | --- | --- |
| COc1cc(-c2[o+]c3cc(O)cc(O)c3cc2O[C@@H]2O[C@H](CO)[C@@H](O)[C@H](O)[C@H]2O)cc(OC)c1O [Mal-gluc] | 100 | > 25 | > 25 | > 25 | > 25 | > 25 | > 25 | > 25 | 54 | > 10 | −4.5 | 24.4 | −5.9 | −6.2 | −9.4 | 7.8 | neither phytochemical induced significant changes in any of the indexes | – |
| O=C(O)CCc1ccc(O)c(O)c1 [DHCA, 3(3,4-dihydroxy-phenyl) propionic acid] | 100 | > 25 | > 25 | > 25 | > 25 | > 25 | > 25 | – | 11.7 | – | 4 | 11.1 | −2.3 | −1.8 | −16.4 | −0.9 | neither phytochemical induced significant changes in any of the indexes | > 25 |
